In patent publication US20230175033A1, “PRODUCTION OF JASMONATES IN FILAMENTOUS FUNGI” (Sumitomo Chemical Company, Limited, priority 2020, published 2023):
Like-named read-outs stand apart in the source and are kept apart here.

What was measured:
[1] = tested on: Lasiodiplodia iranensis DWH-2; test: JA production by Lasiodiplodia iranensis cultures under shaking conditions, JA content by HPLC; format: cell-based
[2] = tested on: Lasiodiplodia iranensis DWH-2; test: Morphology of Lasiodiplodia iranensis cultures under shaking conditions; format: cell-based; details: shaking 250 rpm, 30° C.
[3] = shaker 250 rpm, 30° C., eight days, 200 mg/L IAA and sodium butyrate, 100 mg/L SA and ASA, 10 mg/L VA, 2 mM H2O2

SMILES	Titer (mg/L), production of JA with a jasmonate production elicitor [1, 3]	also measured
CC(=O)Oc1ccccc1C(=O)O [ASA, acetylsalicylic acid]	100 mg/L	–
OO [H2O2, hydrogen peroxide]	160 mg/L	–
O=C([O-])Cc1c[nH]c2ccccc12.[Na+] [IAA, Indole-3-acetic acid sodium salt]	400 mg/L	–
O=C([O-])c1ccccc1O.[Na+] [SA, salicylic acid sodium salt]	–	Titer (mg/L), production of JA with a jasmonate production elicitor [1]: 150 mg/L
CCCC(=O)[O-].[Na+] [Sodium butyrate, sodium butyrate]	–	Titer (mg/L), production of JA with a jasmonate production elicitor [1]: 175 mg/L
CCCC(CCC)C(=O)[O-].[Na+] [VA, valproic acid sodium salt]	350 mg/L	–
CC(C)=CCCC(C)=CCCC(C)=CCO [farnesol]	–	effect on fungal morphology ([2]; 100 mg/L farnesol, nine days): induced mycelial aggregation
OCCc1ccc(O)cc1 [tyrosol]	–	effect on fungal morphology ([2]; 100 mg/L tyrosol, seven days): induced mycelial aggregation
